For this assay, the system named is WNT pathway. The experiment in a line: WNT pathway reporter gene assay (NIH3T3 TCF-Luc cells co-cultured with 293 WNT3a cells). It is filed as cell-based. The settings on record: Mus musculus, co-culture 16 hours, luciferase luminescence reduced by 50%. The procedure: Materials and Methods: NIH3T3 mouse fibroblast cells (American Type Culture Collection, Manassas, Va.) were transfected with a plasmid containing a luciferase gene driven by 5 copies of TCF elements. Stale cells selected with 1 μg/mL of Zeocin (Gibco/Invitrogen, Carlsbad, Calif.) are cultured in Dulbecco's modified Eagle's medium (Invitrogen, Carlsbad, Calif.) supplemented with 10% FBS (Invitrogen), 50 unit/mL penicillin and 50 μg/mL of streptomycin (Invitrogen) at 37° C. with 5% CO2 in air atmosphere.
After 16 hours, the firefly luciferase activities are measured with the Steady-Glo™ Luciferase Assay System (Promega). The cells were treated with different concentrations of compounds of this invention during the co-culture. […] To normalize for cell quantity and viability, CellTiter Glo assay is next performed in a duplicate plate.

`Cc1cc(-c2cc3ccnc(NCc4ccc(-c5ccnc(C)c5)c(C)c4)c3cn2)ccn1` [Compound 2, N-(3-methyl-4-(2-methylpyridin-4-yl)benzyl)-6-(2-methylpyridin-4-yl)-2,7-naphthyridin-1-amine] gave an IC50 below 3 nM.

As for `Cc1cc(-c2cc3ccnc(NCc4ccc(-c5ccnc(F)c5)c(F)c4)c3cn2)ccn1` [Compound 28], the IC50 was below 3 nM.

Compound `Cc1cc(-c2ncc(CNc3nccc4cc(-c5cnccn5)ccc34)cc2C)ccn1` [Compound 70] came in with an IC50 below 3 nM.

On to `Cc1cc(-c2ccc(CNc3nccc4cc(-c5ccnc(C)c5)ncc34)cc2)ccn1` [Compound 1, N-(4-(2-methylpyridin-4-yl)benzyl)-6-(2-methylpyridin-4-yl)-2,7-naphthyridin-1-amine], for which the IC50 was below 3 nM.

Take `Cc1cc(-c2ccc(CNc3nccc4cc(-c5cnccn5)ncc34)cc2)ccn1` [Compound 35]: the IC50 was below 3 nM.

Values taken from US10285988B2, “Compounds for treatment of fibrosis diseases” (CUREGENIX, INC., priority 2013, dated 2019).
